Experimental data taken from paper PMC10517462, “Small molecule targeting of the p38/Mk2 stress signaling pathways to improve cancer treatment” (BMC Cancer, 2023).

Experiments:
[1] = tested on: MDA-MB-231 breast cancer cell line; experiment: CCK8 cell viability assay, MDA-MB-231; format: cell-based, human; conditions: MK2.III 1 µM or etoposide 150 µM alone, 24 h
Description: (§1) To assess the effect of MK2.III kinase inhibitor and the etoposide (VP-16) on the viability of different cancer cell lines, cells were seeded in 96-well plates in a concentration of 5000 cells per well. After 12 h, etoposide and 1 μM MK2.III diluted in culture media were added into the wells for 24 h. NCI-H69 cells were exposed to a series of etoposide concentrations from 20 μM to 150 μM. MDA-MB-231, SW 620, and SW 480 cell lines were incubated with 150 μM etoposide. After treatment, 10 μL of the CCK-8 reagent (96992, Sigma) was added to each well for 1 h followed by optical density measurement at 450 nm using hybrid plate reader Synergy H1.

[2] = tested on: SW620 colorectal cancer cell line; experiment: CCK8 cell viability assay, SW620; format: cell-based, human; conditions: MK2.III 1 µM or etoposide 150 µM alone, 24 h
Description: as §1

[3] = tested on: SW480 colorectal cancer cell line; experiment: CCK8 cell viability assay, SW480; format: cell-based, human; conditions: MK2.III 1 µM alone, 24 h
Description: as §1

NCI-H69 xenograft = experiment: Tumor (xenograft) suppression with combination chemotherapy in SCID mice; format: in vivo; conditions: for Tumor Volume (mm^3) median (25th and 75th quartile): VP-16 12 mg/kg
Description: To establish the most suitable xenograft model for the main experiment we used two mouse lines – BALB/c Nude and SCID (both female, 6 weeks, n = 20, Charles River). Both mouse lines were injected with NCI-H69 cancer cells (xenograft). Before injection, cells were grown at 37 °C in RPMI-1640 medium containing 10% FBS and pen/strep. Cells were mixed with Matrigel (1:1) and depending on the group 5 × 10^6 or 10 × 10^6 cells were injected into a mouse subcutaneously along the spine to the level of the left scapula. Mice were divided into 4 groups: (1) 5 × 10^6 NCI-H69 SCID (n = 5); (2) 5 × 10^6 NCI-H69 Nude (n = 5); (3) 10 × 10^6 NCI-H69 SCID (n = 5); and (4) 10 × 10^6 NCI-H69 Nude (n = 5).
The main experiment (injection of the drugs) took place after the tumor growth was established. The tumor growth in mice following the injection of cells was monitored twice a week and upon reaching the volume of ~ 100 mm^3, animals were randomized into 5 groups (12 female SCID mice in each group). The drug treatment was performed as follows: the first group was a control and received a placebo in the form of PBS (tumor volume 95 ± 38 mm^3); the second group received 12 mg/kg of Etoposide (tumor volume 101 ± 51 mm^3); the third group was injected with 4 mg/kg of MK2.III (tumor volume 105 ± 44 mm^3); fourth and fifth groups were injected with 12 mg/kg of Etoposide and 4 mg/kg or 2 mg/kg of MK2.III (tumor volumes 112 ± 57 and 107 ± 49 mm^3 respectively). Drugs were injected intraperitoneally daily. Etoposide was injected 3 days after the randomization into groups and MK2.III was administered for 28 days. Tumor growth/suppression was measured using calipers every 3–4 days for the duration of the 28-day treatment and the tumor volume was calculated as follows:[…],
Antitumor properties of drugs in the test group were determined based on the slowing of the tumor growth or tumor volume compared with the control group receiving PBS. Animal welfare was monitored throughout the study period to ensure that animals in distress were euthanized by carbon dioxide asphyxiation. All the animals were also euthanized by carbon dioxide asphyxiation following the completion of the study.
Descriptive statistics were used to summarize the tumor size and data reported as medians and 25th and 75th quartiles. Wilcoxon sum rank test was used to investigate the effects of the treatments on tumor growth. […] Statistical analyses were performed on the SigmaPlot 11.0 software.

NCI-H69 cells = experiment: FACS-based cell cycle analysis; design: species or system human; conditions: single treatment, increasing dose
Description: The cells were grown in 12 well plates (Scientific Laboratory Supplies Limited, UK) in RPMI 1640 (Gibco, UK) supplemented with 10% FBS (Autogen Bioclear, UK) and 10,000 U/ml penicillin and 10 mg/ml streptomycin (Sigma, UK) at 37 °C under 5% CO2 and treated with 10, 20, 50, 100 and 150 µM of DNA damaging agent etoposide (VP-16) (Sigma, UK) in the presence or absence of p38MAPK inhibitor SB203580 (Tocris Chemical Co., UK) or MK2 inhibitor MK2.III (Merck, UK) in concentrations of 0, 0.3125, 0.625, 1.25, 2.5, and 5.0 µM. Etoposide, SB203580 and MK2.III were all dissolved in 0.2% of DMSO before use. Cells treated only with the carrier molecule DMSO (0.2%) served as a control.
Viability analysis was performed by staining with the […], stoichiometric DNA stain DRAQ7 (640 or 633 nm excitation and 670 nm emission; Biostatus Limited). After 48-h treatment with DNA damaging agents and/or inhibitors, cells were washed once with RPMI 1640 and resuspended in 1 ml culture media at a concentration of less than 5 × 10^5/ ml. Cells were stained with 20 µM of DRAQ7 and incubated at 37 °C for 10 min before FACS Calibur cytometer analysis. Fluorescent signals were amplified using linear mode. Cell cycle analysis was performed either by staining DRAQ7 or Propidium Iodide (PI). Cells were stained with 20 µM of DRAQ7 and incubated at 37 °C for 10 min before analysis on a FACSCalibur cytometer. […]

[4] = design: method as in PMID 26502061; conditions: cited from earlier work

In the case of `O=C1NCCc2[nH]c(-c3ccnc(-c4cnc5ccccc5c4)c3)cc21` [MK2.III], the “Effect of single agent on viability” value [1] is reported as “does not affect the viability”, the “Decrease of viability by single agent” value [2] is reported as 30% and the “Effect of single agent on viability” value [3] is reported as “does not affect the viability”. For the same compound, the “Difference in tumor size versus control” value (NCI-H69 xenograft; at any checkpoint, etoposide 12 mg/kg, MK2.III 4 mg/kg, or etoposide + MK2.III 2 mg/kg) was “no significant difference”, the “Tumor Volume (mm^3) median (25th and 75th quartile)” value (shortened to “Tumor Volume (mm^3) median”) (NCI-H69 xenograft; day 11 upon treatment, MK2.III 4 mg/kg IP daily) was 516 (401;703) mm^3 and the “Tumor Volume (mm^3) median” value (NCI-H69 xenograft; day 18 upon treatment, MK2.III 4 mg/kg IP daily) was 843 (712;1197) mm^3. For the same compound, the “Tumor Volume (mm^3) median” value (NCI-H69 xenograft; day -1 upon treatment (baseline), MK2.III 4 mg/kg IP) was 106 (72;132) mm^3, the “Effect on cell cycle profile, single agent” value (NCI-H69 cells) was “little effect on the cell cycle profile” and the Solubility [4] was “poor solubility”.
